Laboratory results taken from PMC8151276, “An Integrated Approach toward NanoBRET Tracers for Analysis of GPCR Ligand Engagement” (Molecules, 2021).
Blank lines part the entries; values can stand above or below the molecule they belong to.

What was measured:
Type in all cases: binding
F2RL1 = target: T1, F2RL1 (Homo sapiens, UniProt P55085); experiment: NanoBRET screen HiBiT-F2RL1 in HEK293
T1 construct: purchased Promega (in-house HiBiT-GPCR construct library, NanoBRET)
T1 sequence (P55085 26-397): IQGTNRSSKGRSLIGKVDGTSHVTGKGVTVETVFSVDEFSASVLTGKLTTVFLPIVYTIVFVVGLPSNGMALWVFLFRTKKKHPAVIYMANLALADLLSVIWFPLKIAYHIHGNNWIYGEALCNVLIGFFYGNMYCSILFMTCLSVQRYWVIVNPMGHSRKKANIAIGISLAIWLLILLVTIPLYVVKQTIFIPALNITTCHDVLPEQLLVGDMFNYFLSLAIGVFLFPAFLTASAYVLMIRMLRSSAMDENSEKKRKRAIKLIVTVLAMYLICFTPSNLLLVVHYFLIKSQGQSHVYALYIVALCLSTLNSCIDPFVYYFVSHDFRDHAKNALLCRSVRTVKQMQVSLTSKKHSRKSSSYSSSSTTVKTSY
Method: (§1) Each tracer candidate was screened across the entire library of HiBiT-GPCR constructs using NanoBRET as the detection modality. As depicted in Figure 4A, the specificity of interactions was evaluated through decrease in BRET due to competitive displacement of a bound tracer by excess parental compound. Each tracer was analyzed for binding to each HiBiT-GPCR fusion in the absence and in the presence of competing parental compound. Briefly, HEK293 cells were transfected with HiBiT-GPCR constructs diluted into promoterless DNA to reduce expression and maximize translocation to the cell surface. Each tracer candidate was then screened at concentrations of 1 μM and 0.1 μM across cells expressing these fusions. Cells were treated for 1.5 h with tracer either alone or in the presence of 20 μM competing parental compound (i.e., control). BRET was measured upon addition of purified LgBiT and subsequent complementation with HiBiT genetically fused to a GPCR. The specificity of interactions was assessed through a decrease in BRET signal due to competitive displacement of the bound tracer. To further gauge the robustness of these interactions, the fold response over the control (i.e., BRETtracer/BRETcontrol) was calculated. We chose a 1.5-fold response, which translates to ≥7-fold signal over noise as the minimal threshold required to score an interaction as positive. […]. Below we highlight the screening results obtained for our exemplary fluorescent tracers based on Clozapine, Amitriptyline and AZD1283.
(§2) HiBiT-GPCR DNA constructs were diluted in 10 mM Tris pH 8 to a final concentration of 0.01 μg/μL, arrayed in 96-well plates and stored at −20 °C. For transfection, HEK293 cells were suspended in Opti-MEM (without phenol red) supplemented with 2% fetal bovine serum (Seradigm) and 100 units/mL penicillin–streptomycin (Gibco) at a final concentration of 220,000 cells/mL and dispensed into white 96-well plates at 90 μL/well. Subsequent transfections and screens were carried using an Agilent Bravo Automated Liquid Handling Platform. First, the 96-well HiBiT DNA arrays were diluted 25-fold in Opti-MEM (without serum or phenol red) to a final concentration of 0.0004 μg/μL and 20 μL of the diluted DNAs were transferred into new 96-well plates. Next, promoterless carrier DNA (1 μg/μL) was diluted 25-fold (0.04 μg/μL) and then dispensed into the diluted arrays at 20 μL/well. Following brief mixing, Viafect transfection reagent (Promega) diluted 16-fold into Opti-MEM was dispensed into the plates at 40 μL/well. After mixing by pipetting, plates were incubated for 10 min on the pipetting station deck. The DNA-transfection reagent complexes were then added to plates containing cells. To facilitate the screen, 10 μL of DNA-transfection reagent complexes were added in duplicates to the top 4 and bottom 4 rows, resulting in two identical 48-well arrays per plate. Plates with transfected cells were incubated for 18–20 h at 37 °C/5% CO2. A screen of each tracer across the entire library using two different concentrations requires duplicate plates of transfected cells. Depending on the number of tracers being screened, transfections can be scaled up using the same ratios. The next day, for each tracer, four 20× screening solutions in tracer dilution buffer (Promega) were prepared: two duplicates at final concentration of 20 μM and two duplicates at a final concentration of 2 μM. A competing unmodified compound was added to one of each duplicate at a final concentration of 400 μM. The four resulting solutions were diluted 4-fold in Opti-MEM without serum or phenol red to generate 5× solutions (5 µM and 0.5 µM tracer +/− 100 μM competing compound). To screen the library, a BioTek MultiFlo FX liquid dispenser was used to dispense 22.5 µL of tracer solution to the top 4 rows and 22.5 µL tracer + competing compound solution to the 4 bottom rows. Plates were briefly mixed on an orbital shaker and incubated for 1.5 h at room temperature. […]

MLNR = target: T2, MLNR (Homo sapiens, UniProt O43193); experiment: NanoBRET screen HiBiT-MLNR in HEK293
T2 construct: purchased Promega (in-house HiBiT-GPCR construct library, NanoBRET)
Method: as §1, §2

FSHR = target: T3, FSHR (Homo sapiens, UniProt P23945); experiment: NanoBRET screen HiBiT-FSHR in HEK293
T3 construct: purchased Promega (in-house HiBiT-GPCR construct library, NanoBRET)
T3 sequence (P23945 18-695): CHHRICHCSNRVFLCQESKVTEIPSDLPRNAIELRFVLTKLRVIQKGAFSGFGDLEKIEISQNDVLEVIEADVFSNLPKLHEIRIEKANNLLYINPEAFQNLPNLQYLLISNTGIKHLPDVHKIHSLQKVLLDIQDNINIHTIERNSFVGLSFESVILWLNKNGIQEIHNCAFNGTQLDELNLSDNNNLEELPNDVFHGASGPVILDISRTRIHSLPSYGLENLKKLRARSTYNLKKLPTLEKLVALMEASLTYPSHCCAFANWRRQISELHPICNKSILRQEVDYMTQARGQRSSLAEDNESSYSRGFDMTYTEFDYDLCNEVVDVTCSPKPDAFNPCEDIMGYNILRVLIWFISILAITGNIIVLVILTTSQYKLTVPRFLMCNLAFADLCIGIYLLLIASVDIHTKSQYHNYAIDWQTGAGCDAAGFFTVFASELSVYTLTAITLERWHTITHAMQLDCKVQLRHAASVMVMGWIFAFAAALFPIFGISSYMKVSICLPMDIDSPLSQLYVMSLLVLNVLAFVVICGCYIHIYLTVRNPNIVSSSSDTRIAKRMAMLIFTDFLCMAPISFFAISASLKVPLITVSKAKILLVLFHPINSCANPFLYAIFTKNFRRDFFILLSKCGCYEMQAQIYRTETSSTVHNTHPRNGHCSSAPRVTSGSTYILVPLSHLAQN
Method: as §1, §2

FZD1 = target: T4, FZD1 (Homo sapiens, UniProt Q9UP38); experiment: NanoBRET screen HiBiT-FZD1 in HEK293
T4 construct: purchased Promega (in-house HiBiT-GPCR construct library, NanoBRET)
Method: as §1, §2

SMO = target: T5, SMO (Homo sapiens, UniProt Q99835); experiment: NanoBRET screen HiBiT-SMO in HEK293
T5 construct: purchased Promega (in-house HiBiT-GPCR construct library, NanoBRET)
Method: as §1, §2

SSTR3 = target: T6, SSTR3 (Homo sapiens, UniProt P32745); experiment: NanoBRET screen HiBiT-SSTR3 in HEK293
T6 construct: purchased Promega (in-house HiBiT-GPCR construct library, NanoBRET)
Method: as §1, §2

[1] = tracer at 0.1μM, listed as amitriptyline-b-2-NB590
[2] = tracer at 1μM, listed as amitriptyline-b-2-NB590

T6 sequence (P32745 whole entry): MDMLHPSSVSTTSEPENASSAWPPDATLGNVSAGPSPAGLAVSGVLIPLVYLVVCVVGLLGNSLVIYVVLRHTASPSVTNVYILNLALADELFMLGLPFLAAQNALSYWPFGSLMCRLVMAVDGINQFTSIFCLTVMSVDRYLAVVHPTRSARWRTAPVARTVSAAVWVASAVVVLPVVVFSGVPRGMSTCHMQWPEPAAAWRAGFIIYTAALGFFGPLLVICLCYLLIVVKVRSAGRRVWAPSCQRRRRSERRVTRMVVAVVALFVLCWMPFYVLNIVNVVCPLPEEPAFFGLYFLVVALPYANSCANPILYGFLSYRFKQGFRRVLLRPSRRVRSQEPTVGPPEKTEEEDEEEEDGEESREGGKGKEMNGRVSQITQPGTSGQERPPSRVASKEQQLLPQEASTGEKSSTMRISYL
T2 sequence (O43193 whole entry): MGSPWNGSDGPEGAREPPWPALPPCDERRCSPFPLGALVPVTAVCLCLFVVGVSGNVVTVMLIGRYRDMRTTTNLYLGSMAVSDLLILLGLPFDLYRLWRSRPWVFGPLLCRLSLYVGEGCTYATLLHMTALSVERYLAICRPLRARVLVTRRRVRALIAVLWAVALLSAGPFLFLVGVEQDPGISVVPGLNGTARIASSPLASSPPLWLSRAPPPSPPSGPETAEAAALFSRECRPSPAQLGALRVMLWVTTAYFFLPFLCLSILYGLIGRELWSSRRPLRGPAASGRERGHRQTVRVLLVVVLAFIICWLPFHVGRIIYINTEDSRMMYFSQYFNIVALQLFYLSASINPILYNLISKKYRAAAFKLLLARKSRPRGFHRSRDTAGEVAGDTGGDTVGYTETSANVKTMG
T5 sequence (Q99835 28-787): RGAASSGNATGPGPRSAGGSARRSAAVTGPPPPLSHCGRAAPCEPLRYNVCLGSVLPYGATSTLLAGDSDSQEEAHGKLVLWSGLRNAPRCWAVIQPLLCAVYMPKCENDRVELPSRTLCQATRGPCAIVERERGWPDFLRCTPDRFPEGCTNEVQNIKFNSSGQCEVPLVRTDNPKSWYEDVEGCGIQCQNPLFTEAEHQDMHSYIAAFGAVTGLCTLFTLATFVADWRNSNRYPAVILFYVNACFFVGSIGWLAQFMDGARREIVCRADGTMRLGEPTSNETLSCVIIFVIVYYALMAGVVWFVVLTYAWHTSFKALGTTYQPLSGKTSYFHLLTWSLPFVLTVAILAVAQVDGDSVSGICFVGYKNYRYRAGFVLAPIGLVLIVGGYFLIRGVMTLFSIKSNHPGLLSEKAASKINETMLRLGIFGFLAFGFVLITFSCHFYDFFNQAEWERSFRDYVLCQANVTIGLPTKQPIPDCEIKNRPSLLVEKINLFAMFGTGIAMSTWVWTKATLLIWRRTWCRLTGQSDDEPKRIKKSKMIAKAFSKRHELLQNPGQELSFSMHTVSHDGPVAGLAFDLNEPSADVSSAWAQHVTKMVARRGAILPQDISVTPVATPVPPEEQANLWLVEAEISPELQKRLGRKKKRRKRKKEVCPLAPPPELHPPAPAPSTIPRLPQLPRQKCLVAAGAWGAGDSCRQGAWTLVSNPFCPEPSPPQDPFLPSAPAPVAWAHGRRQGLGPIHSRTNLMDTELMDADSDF
T4 sequence (Q9UP38 70-647): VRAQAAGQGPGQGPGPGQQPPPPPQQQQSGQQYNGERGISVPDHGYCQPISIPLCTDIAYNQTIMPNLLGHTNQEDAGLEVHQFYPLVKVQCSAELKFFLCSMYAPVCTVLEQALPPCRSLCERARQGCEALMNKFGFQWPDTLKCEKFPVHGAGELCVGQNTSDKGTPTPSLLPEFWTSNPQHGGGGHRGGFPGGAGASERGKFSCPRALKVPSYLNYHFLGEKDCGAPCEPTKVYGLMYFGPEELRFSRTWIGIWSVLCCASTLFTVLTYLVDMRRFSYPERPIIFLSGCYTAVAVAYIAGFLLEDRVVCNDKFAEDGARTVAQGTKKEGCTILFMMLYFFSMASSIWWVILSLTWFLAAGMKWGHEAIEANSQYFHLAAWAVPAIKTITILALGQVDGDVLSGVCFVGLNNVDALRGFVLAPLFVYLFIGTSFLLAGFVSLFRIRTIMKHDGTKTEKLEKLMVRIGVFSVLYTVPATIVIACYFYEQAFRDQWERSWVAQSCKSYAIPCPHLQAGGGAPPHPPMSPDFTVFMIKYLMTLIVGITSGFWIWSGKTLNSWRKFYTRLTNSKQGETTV

- NanoBRET Fold Response (F2RL1; F2RL1, 0.1μM): 1.06
- NanoBRET Fold Response (F2RL1; F2RL1, 1μM): 1.06
- NanoBRET Fold Response (MLNR; MLNR, 0.1μM): 1.06
- NanoBRET Fold Response (MLNR; MLNR, 1μM): 1.01
- NanoBRET Fold Response (FSHR; FSHR, 0.1μM): 0.99
- NanoBRET Fold Response (FSHR; FSHR, 1μM): 1.03
- NanoBRET Fold Response (FZD1; FZD1, 0.1μM): 1.06
- NanoBRET Fold Response (FZD1; FZD1, 1μM): 1.07
- NanoBRET Fold Response (SMO; SMO, 0.1μM): 1.05
- NanoBRET Fold Response (SMO; SMO, 1μM): 1.13
- NanoBRET Fold Response (SSTR3; SSTR3, 0.1μM): 1.07
- NanoBRET Fold Response (SSTR3; SSTR3, 1μM): 1.13
Structure (SMILES): CCOC(=O)c1cc(C#N)c(N2CCC(C(=O)NS(=O)(=O)Cc3ccccc3/C=C/C(=O)NCCNC(=O)CCc3ccc4n3[B-](F)(F)[N+]3=C(c5ccc[nH]5)C=CC3=C4)CC2)nc1C [AZD1283-1-NB590]

- NanoBRET Fold Response (F2RL1; F2RL1, tracer 0.1μM): 1.03
- NanoBRET Fold Response (F2RL1; F2RL1, tracer 1μM): 0.99
- NanoBRET Fold Response (MLNR; MLNR, tracer 0.1μM): 0.97
- NanoBRET Fold Response (MLNR; MLNR, tracer 1μM): 1.00
- NanoBRET Fold Response (FSHR; FSHR, tracer 0.1μM): 0.99
- NanoBRET Fold Response (FSHR; FSHR, tracer 1μM): 1.06
- NanoBRET Fold Response (FZD1; FZD1, tracer 0.1μM): 1.07
- NanoBRET Fold Response (FZD1; FZD1, tracer 1μM): 1.12
- NanoBRET Fold Response (SMO; SMO, tracer 0.1μM): 1.03
- NanoBRET Fold Response (SMO; SMO, tracer 1μM): 0.91
- NanoBRET Fold Response (SSTR3; SSTR3, tracer 0.1μM): 1.03
- NanoBRET Fold Response (SSTR3; SSTR3, tracer 1μM): 0.99
Structure (SMILES): N#CN=C(NCCCOc1cccc(CN2CCCCC2)c1)NCCNC(=O)CCOCCOCCOCCOCCNC(=O)CCc1ccc2n1[B-](F)(F)[N+]1=C(c3ccc[nH]3)C=CC1=C2 [Aminopotentidine-2-NB590]

Structure (SMILES): CN(C)CCC=C1c2ccccc2CCc2ccc(C(=O)NCCNC(=O)CCOCCOCCOCCOCCNC(=O)CCc3ccc4n3[B-](F)(F)[N+]3=C(c5ccc[nH]5)C=CC3=C4)cc21 [Amitriptyline-a-2-NB590]
- NanoBRET Fold Response (F2RL1; tracer at 0.1μM): 1.01
- NanoBRET Fold Response (F2RL1; tracer at 1μM): 1.07
- NanoBRET Fold Response (MLNR; tracer at 0.1μM): 1.05
- NanoBRET Fold Response (MLNR; tracer at 1μM): 1.05
- NanoBRET Fold Response (FSHR; tracer at 0.1μM): 1.02
- NanoBRET Fold Response (FSHR; tracer at 1μM): 1.06
- NanoBRET Fold Response (FZD1; tracer at 0.1μM): 0.92
- NanoBRET Fold Response (FZD1; tracer at 1μM): 0.98
- NanoBRET Fold Response (SSTR3; tracer at 0.1μM): 1.05
- NanoBRET Fold Response (SSTR3; tracer at 1μM): 1.05

Structure (SMILES): CN(C)CCC=C1c2ccccc2CCc2ccc(C(=O)NCCNC(=O)CCOCCOCCOCCOCCNC(=O)CCc3ccc4n3[B-](F)(F)[N+]3=C(c5ccc[nH]5)C=CC3=C4)cc21 [Amitriptyline-b-2-NB590]
- NanoBRET Fold Response (F2RL1; [1]): 1.10
- NanoBRET Fold Response (F2RL1; [2]): 1.00
- NanoBRET Fold Response (MLNR; [1]): 1.19
- NanoBRET Fold Response (FSHR; [1]): 1.13
- NanoBRET Fold Response (FSHR; [2]): 0.96
- NanoBRET Fold Response (FZD1; [1]): 0.97
- NanoBRET Fold Response (FZD1; [2]): 1.14
- NanoBRET Fold Response (SMO; tracer at 1μM): 0.97
- NanoBRET Fold Response (SSTR3; tracer at 0.1μM): 0.95
- NanoBRET Fold Response (SSTR3; tracer at 1μM): 0.99
